What was measured:
Format in all cases: functional
ACHN = assay: Growth inhibition of human ACHN cells assessed as cell growth at 10 uM incubated for 48 hrs by sulforhodamine B assay relative to control; details: read-out: Activity
OVCAR-4 = assay: Growth inhibition of human OVCAR4 cells assessed as cell growth at 10 uM incubated for 48 hrs by sulforhodamine B assay relative to control; details: OVCAR-4, 48 h, read-out: Activity
SW-620 = assay: Growth inhibition of human SW620 cells assessed as cell growth at 10 uM incubated for 48 hrs by sulforhodamine B assay relative to control; details: SW-620, 48 h, read-out: Activity
IGROV-1 = assay: Growth inhibition of human IGROV1 cells assessed as cell growth at 10 uM incubated for 48 hrs by sulforhodamine B assay relative to control; details: IGROV-1, 48 h, read-out: Activity
MDA-MB-435 = assay: Growth inhibition of human MDA-MB-435 cells assessed as cell growth at 10 uM incubated for 48 hrs by sulforhodamine B assay relative to control; details: MDA-MB-435, 48 h, read-out: Activity
A498 = assay: Growth inhibition of human A498 cells assessed as cell growth at 10 uM incubated for 48 hrs by sulforhodamine B assay relative to control; details: A498, 48 h, read-out: Activity
SNB-19 = assay: Growth inhibition of human SNB19 cells assessed as cell growth at 10 uM incubated for 48 hrs by sulforhodamine B assay relative to control; details: SNB-19, 48 h, read-out: Activity
OVCAR-3 = assay: Growth inhibition of human OVCAR3 cells assessed as cell growth at 10 uM incubated for 48 hrs by sulforhodamine B assay relative to control; details: OVCAR-3, 48 h, read-out: Activity
MOLT-4 = assay: Growth inhibition of human MOLT4 cells assessed as cell growth at 10 uM incubated for 48 hrs by sulforhodamine B assay relative to control; details: MOLT-4, 48 h, read-out: Activity
A549 = assay: Growth inhibition of human A549/ATCC cells assessed as cell growth at 10 uM incubated for 48 hrs by sulforhodamine B assay relative to control; details: A549, 48 h, read-out: Activity
U-251 = assay: Growth inhibition of human U251 cells assessed as cell growth at 10 uM incubated for 48 hrs by sulforhodamine B assay relative to control; details: U-251, 48 h, read-out: Activity
DU-145 = assay: Growth inhibition of human DU145 cells assessed as cell growth at 10 uM incubated for 48 hrs by sulforhodamine B assay relative to control; details: DU-145, 48 h, read-out: Activity
SF-268 = assay: Growth inhibition of human SF268 cells assessed as cell growth at 10 uM incubated for 48 hrs by sulforhodamine B assay relative to control; details: SF-268, 48 h, read-out: Activity
RPMI-8226 = assay: Growth inhibition of human RPMI8226 cells assessed as cell growth at 10 uM incubated for 48 hrs by sulforhodamine B assay relative to control; details: RPMI-8226, 48 h, read-out: Activity
HL-60(TB) = assay: Growth inhibition of human HL-60(TB) cells assessed as cell growth at 10 uM incubated for 48 hrs by sulforhodamine B assay relative to control; details: HL-60, 48 h, read-out: Activity
SNB-75 = assay: Growth inhibition of human SNB75 cells assessed as cell growth at 10 uM incubated for 48 hrs by sulforhodamine B assay relative to control; details: SNB-75, 48 h, read-out: Activity
MCF7 = assay: Growth inhibition of human MCF7 cells assessed as cell growth at 10 uM incubated for 48 hrs by sulforhodamine B assay relative to control; details: MCF7, 48 h, read-out: Activity
NCI/ADR-RES = assay: Growth inhibition of human NCI/ADR-RES cells assessed as cell growth at 10 uM incubated for 48 hrs by sulforhodamine B assay relative to control; details: read-out: Activity
OVCAR-5 = assay: Growth inhibition of human OVCAR5 cells assessed as cell growth at 10 uM incubated for 48 hrs by sulforhodamine B assay relative to control; details: OVCAR-5, 48 h, read-out: Activity
NCI-H226 = assay: Growth inhibition of human NCI-H226 cells assessed as cell growth at 10 uM incubated for 48 hrs by sulforhodamine B assay relative to control; details: NCI-H226, 48 h, read-out: Activity
SK-OV-3 = assay: Growth inhibition of human SKOV3 cells assessed as cell growth at 10 uM incubated for 48 hrs by sulforhodamine B assay relative to control; details: SK-OV-3, 48 h, read-out: Activity
CAKI-1 = assay: Growth inhibition of human Caki1 cells assessed as cell growth at 10 uM incubated for 48 hrs by sulforhodamine B assay relative to control; details: CAKI-1, 48 h, read-out: Activity
UACC-62 = assay: Growth inhibition of human UACC62 cells assessed as cell growth at 10 uM incubated for 48 hrs by sulforhodamine B assay relative to control; details: UACC-62, 48 h, read-out: Activity
RXF 393 = assay: Growth inhibition of human RXF393 cells assessed as cell growth at 10 uM incubated for 48 hrs by sulforhodamine B assay relative to control; details: RXF 393, 48 h, read-out: Activity
SN12C = assay: Growth inhibition of human SN12C cells assessed as cell growth at 10 uM incubated for 48 hrs by sulforhodamine B assay relative to control; details: read-out: Activity
UACC-257 = assay: Growth inhibition of human UACC257 cells assessed as cell growth at 10 uM incubated for 48 hrs by sulforhodamine B assay relative to control; details: UACC-257, 48 h, read-out: Activity
SF-295 = assay: Growth inhibition of human SF295 cells assessed as cell growth at 10 uM incubated for 48 hrs by sulforhodamine B assay relative to control; details: SF-295, 48 h, read-out: Activity
T47D = assay: Growth inhibition of human T47D cells assessed as cell growth at 10 uM incubated for 48 hrs by sulforhodamine B assay relative to control; details: read-out: Activity
HCC 2998 = assay: Growth inhibition of human HCC2998 cells assessed as cell growth at 10 uM incubated for 48 hrs by sulforhodamine B assay relative to control; details: HCC 2998, 48 h, read-out: Activity
786-0 = assay: Growth inhibition of human 786-0 cells assessed as cell growth at 10 uM incubated for 48 hrs by sulforhodamine B assay relative to control; details: 786-0, 48 h, read-out: Activity
OVCAR-8 = assay: Growth inhibition of human OVCAR8 cells assessed as cell growth at 10 uM incubated for 48 hrs by sulforhodamine B assay relative to control; details: OVCAR-8, 48 h, read-out: Activity
Hs-578T = assay: Growth inhibition of human Hs578T cells assessed as cell growth at 10 uM incubated for 48 hrs by sulforhodamine B assay relative to control; details: read-out: Activity
SR = assay: Growth inhibition of human SR cells assessed as cell growth at 10 uM incubated for 48 hrs by sulforhodamine B assay relative to control; details: read-out: Activity

SMILES | growth at 10 µM (ACHN) [%] | growth at 10 µM (OVCAR-4) [%] | growth at 10 µM (SW-620) [%] | growth at 10 µM (IGROV-1) [%] | growth at 10 µM (MDA-MB-435) [%] | growth at 10 µM (A498) [%] | growth at 10 µM (SNB-19) [%] | growth at 10 µM (OVCAR-3) [%] | growth at 10 µM (MOLT-4) [%] | growth at 10 µM (A549) [%] | growth at 10 µM (U-251) [%] | growth at 10 µM (DU-145) [%] | growth at 10 µM (SF-268) [%] | growth at 10 µM (RPMI-8226) [%] | growth at 10 µM (HL-60(TB)) [%] | growth at 10 µM (SNB-75) [%] | growth at 10 µM (MCF7) [%] | growth at 10 µM (NCI/ADR-RES) [%] | growth at 10 µM (OVCAR-5) [%] | growth at 10 µM (NCI-H226) [%] | also measured
COc1cc(Cl)cc(-c2nn(-c3cccc(NC(=O)Nc4ccc(Cl)c(C(F)(F)F)c4)c3)cc2-c2ccncc2)c1 | 8.78 | 16.6 | 12.7 | 30.2 | -16.8 | -9.18 | 28.1 | -22.6 | -9.68 | 5.2 | -48.3 | 15.2 | 22.9 | -29.1 | -9.59 | 14.5 | 2.57 | 6.07 | 19.2 | -2.82 | growth at 10 µM (SK-OV-3): 11.9%; growth at 10 µM (CAKI-1): 9.38%; growth at 10 µM (UACC-62): 6.62%; growth at 10 µM (RXF 393): -29.9%; growth at 10 µM (SN12C): 13.8%; growth at 10 µM (UACC-257): -25.9%; growth at 10 µM (SF-295): -7.48%; growth at 10 µM (T47D): 8.1%; growth at 10 µM (HCC 2998): 18.1%; growth at 10 µM (786-0): -4.76%; growth at 10 µM (OVCAR-8): 8.71%; growth at 10 µM (Hs-578T): 14.6%; growth at 10 µM (SR): -27.5%
O=C(Nc1cccc(-n2cc(-c3ccncc3)c(-c3cc(O)cc(Cl)c3)n2)c1)Nc1ccc(Cl)c(Cl)c1 | 6.85 | 10.7 | -33.8 | 26 | -33.3 | -2.98 | 30.8 | -47.4 | -27.1 | 3.96 | -56.5 | -15.1 | 16.2 | -15.3 | -23.4 | 4.08 | 2.74 | 12.8 | -2.26 | 14.5 | growth at 10 µM (SK-OV-3): 13.2%; growth at 10 µM (CAKI-1): 5.31%; growth at 10 µM (UACC-62): -61.8%; growth at 10 µM (RXF 393): -70.3%; growth at 10 µM (SN12C): 14.9%; growth at 10 µM (UACC-257): -70.7%; growth at 10 µM (SF-295): -50.5%; growth at 10 µM (T47D): -5.53%; growth at 10 µM (HCC 2998): 0.57%; growth at 10 µM (786-0): -72.1%; growth at 10 µM (OVCAR-8): -14.8%; growth at 10 µM (Hs-578T): -6.42%; growth at 10 µM (SR): -21.4%
O=C(Nc1cccc(-n2cc(-c3ccncc3)c(-c3cc(O)cc(Cl)c3)n2)c1)c1ccc(N2CCOCC2)c(C(F)(F)F)c1 | 20.7 | 77.1 | -26.2 | 44.3 | 23 | 72.7 | 12.1 | 36.4 | -29.7 | 9.62 | -9.64 | 38 | 52.7 | -3.77 | -46.4 | 23.1 | 29.7 | 35 | 81.4 | 94.7 | growth at 10 µM (SK-OV-3): 50.7%; growth at 10 µM (CAKI-1): 14.8%; growth at 10 µM (UACC-62): 10.8%; growth at 10 µM (RXF 393): -45.6%; growth at 10 µM (SN12C): 46.4%; growth at 10 µM (UACC-257): 9.38%; growth at 10 µM (SF-295): -35.4%; growth at 10 µM (T47D): 29.3%; growth at 10 µM (HCC 2998): -3.65%; growth at 10 µM (786-0): 36.6%; growth at 10 µM (OVCAR-8): 22.7%; growth at 10 µM (Hs-578T): 17.9%; growth at 10 µM (SR): -12.4%
